According to US10596137B2, “Medium chain fatty acids and their triglycerides for treating anxiety” (NESTEC S.A., priority 2015, dated 2020):
Entries after “also recorded” stand apart in the source; their conditions may differ.

Assay: Temporal dynamics of plasma and brain ketones after octanoic or decanoic acid ingestion
Type: in vivo, rat
Details: after ingestion (oral gavage); for plasma and brain β-HB (ketone) levels: kinetics
Experimental: Blood was drawn from the tail vein 7 days after initiation of treatment and trunk blood was collected during sacrifice. Blood was centrifuged and plasma samples were analysed for beta-hydroxybutyrate using a colorimetric kit (Cayman, US). For measurement of brain ketones, sample preparation involved liquid/liquid extraction of 50 μl brain tissue supernatant (pH 2), and extract derivatization with MSTFA (silylation). Analysis of BHB was performed via GC/MS, int. Standard 13C2-3-OH-But, m/z 233 (3-OH-But), m/z 118 (13C2-3-OH-But), with a calibration of 2-24 μg/ml (water); LOQ: 2 μg/ml, LOD: 0.7 μg/ml.
Control rats received oral gavage of sunflower oil, as described above. MCT8 and MCT10 received oral gavage of octanoic acid or decanoic acid, respectively. Rats were sacrificed and trunk blood, portal vein blood and brain, pancreas and liver were collected as indicated.

SMILES | plasma and brain β-HB (ketone) levels | plasma ketone levels (octanoic compared to decanoic acid)
CCCCCCCCCC(=O)O [decanoic acid] | longer-lasting increase; also recorded: prolonged increase | –
CCCCCCCC(=O)O [octanoic acid] | more rapid increase; also recorded: rapid increase | increased more rapidly
